{"source": "patent US8372876B2", "about": "“Method for improving memory in mammals” (The University of Houston System, priority 2007, dated 2013)", "key": {"[1]": {"test_system": "zebrafish embryos", "settings": "cited from earlier work"}, "[2]": {"target": "T1, MT2 than for MT1 subtypes of melatonin receptors (Homo sapiens, UniProt P49286)", "T1 sequence (P49286 1-362)": "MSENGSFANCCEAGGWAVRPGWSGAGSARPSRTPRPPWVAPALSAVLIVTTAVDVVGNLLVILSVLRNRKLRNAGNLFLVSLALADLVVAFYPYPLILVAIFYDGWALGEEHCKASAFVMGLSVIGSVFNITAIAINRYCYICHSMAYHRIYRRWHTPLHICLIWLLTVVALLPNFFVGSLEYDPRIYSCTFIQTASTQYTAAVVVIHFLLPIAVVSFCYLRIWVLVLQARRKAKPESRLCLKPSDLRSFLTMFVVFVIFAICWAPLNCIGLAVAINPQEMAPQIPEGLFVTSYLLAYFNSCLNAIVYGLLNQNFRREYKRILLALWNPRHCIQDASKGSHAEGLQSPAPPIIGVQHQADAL", "settings": "MT2 versus MT1 selectivity; cited from earlier work"}, "[3]": {"test_system": "C3H/HeN mice", "settings": "more pronounced effect at midnight than midday; cited from earlier work"}, "[4]": {"test_system": "Zebrafish (D. rerio)", "assay": "active-avoidance conditioning in a shuttle box: learning (trials to criteria) and 24 h retention score", "assay_type": "in vivo", "method": "Zebrafish (D. rerio) were bred, raised and maintained by the experimenter at the University of Houston Animals Facility. Adult zebrafish are maintained in 2-liter modular aquaria (Marine Biotech) with continuous water exchange at 26-28° C. under 14:10 hours light:dark cycle. Eggs and larvae are maintained in beakers with daily water changes, under the same light:dark cycle and similar temperatures. Larval fish are fed with filtered paramecium. All animals, juvenile (>15 days) and adults are fed three times a day with live brine shrimp or flake. The *AB strain was originally obtained from the University of Oregon. All protocols were approved by the University of Houston Institutional Animal Care Use Committee. Zebrafish are trained on an active-avoidance conditioning paradigm using a modified shuttle box. Zebrafish must cross a hurdle to avoid electric shocks (3V; unconditioned stimulus) administered via electrodes 10 seconds after the onset of the conditioned stimulus which was a dim red light. Dim red lights are placed at the extremity of each compartment of the shuttle box. The light signal was kept on during each cycle lasting for 20 seconds in one compartment; subsequently, the conditioned and unconditioned stimuli changed to the other side of the shuttle box. Zebrafish must learn to escape the dark compartment and maintain in the compartment having the light stimulus on for the remaining trial period. Animals that respond correctly to the light signals in eight out of ten consecutive trials during the training period are designated learners. Training was terminated once Zebrafish achieve the learning criteria (i.e. swimming the compartment where the stimulus light was on and remain there until the light was switched off). […] Animals are tested 24 hours later under identical conditions to test for retention of the learned task. To quantitatively evaluate the ability of each learner to recall the active avoidance conditioning paradigm, a retention score was calculated using the algorithm of Piront and Schmidt [formula] The number of trials required to reach the learning criteria during the test session was subtracted from number of trials required to reach the learning criteria in the training session, divided by the number of trials in the test plus training sessions. Retention scores range from 0 to 1.0. […] Melatonin Blocks Long-Term Memory Formation During the Subjective Day This melatonin effect was tested by taking animals originally under 14:10 hours light:dark cycles and exposing them to constant darkness for 4 days. On the 3rd day of constant darkness and one hour prior to training at CT7 (corresponds to 4 pm) animals were bathed in increasing concentrations of melatonin (1 μM, 10 μM, 50 μM and 100 μM). Animals were then trained at CT8 for active avoidance conditioning and tested 24 hours later on the 4th day of constant darkness at CT8 for long-term memory formation. […] To test whether melatonin blocks long-term memory formation via melatonin receptor mediated signaling pathway, the following experiments were performed. Animals in their original 14:10 hours light:dark cycles were set under free running conditions of constant darkness and temperature (25° C.) for 4 days. […] Treatments comprising of melatonin and either of its antagonists (luzindole or K-185) do improve the retention score, going from 0.1 with melatonin alone to about 0.4 in the presence of a mixture of melatonin and luzindole and to about 0.3 in the presence of a mixture of melatonin and K-185. […] This means that the inhibitory action of melatonin was mediated via a melatonin receptor-signaling pathway. […] This effect was tested by blocking night time melatonin receptor mediated signaling pathways with increased concentrations of melatonin receptor antagonist, such as luzindole. Animals in 14:10 hours light:dark cycles were exposed to constant darkness and temperature (25° C.) for 4 days. […]"}}, "note": "“Also recorded” adds a separate entry of the source."}
{"smiles": "CCCC(=O)NCCc1c2n(c3ccc(OC)cc13)CCCc1ccccc1-2", "note": "[K-185, N-butanoyl-2-(5,6,7-trihydro-11-methoxy-benzo[3,4]cyclohept[2,1-a]indol-13-yl) ethanamine]", "values": [{"measurement": "antagonism of the effect of melatonin on zebrafish development", "setting": "[1]", "result": "blocking the effect of melatonin on zebrafish development"}, {"measurement": "higher affinity for MT2 than for MT1", "setting": "[2]", "result": "> 140", "unit": "fold"}]}
{"smiles": "CC(=O)NCCc1c(Cc2ccccc2)[nH]c2ccccc12", "note": "[luzindole, N-Acetyl-2-benzyltryptamine]", "values": [{"measurement": "duration of immobility during swimming", "setting": "[3]", "result": "decreases the duration of immobility during swimming"}, {"measurement": "retention score", "setting": "[4]; 0.5 μM luzindole, 1 h at CT15, trained CT16, tested 24 h later (subjective night), FIG. 4b", "result": "less than 0.1"}, {"measurement": "retention score", "setting": "[4]; 1 μM luzindole, 1 h at CT15, trained CT16, tested 24 h later (subjective night), FIG. 4b", "result": 0.25}, {"measurement": "number of trials to reach learning criteria", "setting": "[4]; luzindole at increasing concentration, 1 h at CT15, trained CT16 (subjective night), constant darkness, FIG. 4a", "result": "No significant difference; also recorded: remains the same"}]}
{"smiles": "COc1ccc2[nH]cc(CCNC(C)=O)c2c1", "note": "[melatonin, 5-OCH3 N-acetyltryptamine]", "values": [{"measurement": "retention score", "setting": "[4]; 100 μM melatonin, 1 h at CT7, trained CT8, tested 24 h later (subjective day), FIG. 2b", "result": "significantly reduced"}, {"measurement": "long-term memory formation (retention score)", "setting": "[4]; low concentrations of melatonin, 1 h at CT7, tested 24 h after training at CT8", "result": "do not significantly block long-term memory formation"}, {"measurement": "retention score", "setting": "[4]; melatonin concentration over 50 μM, 1 h at CT7, tested 24 h after training at CT8 (subjective day)", "result": "around 0.1"}]}
